{"source": "paper PMC8719521", "about": "“Spectral, Anti-Inflammatory, Anti-Pyretic, Leishmanicidal, and Molecular Docking Studies, Against Selected Protein Targets, of a New Bisbenzylisoquinoline Alkaloid” (Frontiers in Chemistry, 2021)", "key": {"[1]": {"tested_on": "carrageenan-induced paw edema", "experiment": "Carrageenan-induced paw edema studies", "format": "in vivo, Albino rats", "conditions": "for percent inhibition of carrageenan-induced paw edema: right after the carrageenan injection, p < 0.05", "experimental": "(§1) Albino rats (180–200 g) of either sex were used in all experiments. The animals were kept under standard laboratory conditions (25 °C and light/dark cycles, i.e., 12/12 h) and were fed with standard food and water ad libitum.\nAlbino rats of either sex (180–200 g) were used to assess anti-inflammatory activity. The animals were randomly divided into five groups with each group having six albino rats (n = 6). Pedal inflammations in albino rats of either sex were produced according to the method described by Winter et al. (1962). Group 1 was treated with normal saline (5 ml/ kg) and group 2 was treated with oxyphenylbutazone (10 mg/ kg, i.p.), while groups 3–5 were treated with compounds 1–5 (10 mg/ kg and 20 mg/ kg, i.p.). After 30 min, 0.05 ml 1% carrageenan sodium salt (BDH) was subcutaneously injected into the plantar aponeurosis tissue of the right hind paw of each rat. The inflammation was measured using a plethysmometer (Apelex, France) immediately after +3 h of carrageenan injection. The anti-inflammatory activity was calculated using the following formula: 100(1−a−x/b−y), where “b” is the mean paw volume of control rats after carrageenan injection and “y” before the injection; whereas “x” is the mean paw volume of treated rats before injection and “a” is the mean paw volume after carrageenan injection."}, "yeast-induced pyrexia": {"tested_on": "yeast-induced pyrexia", "experiment": "Anti-pyretic studies, brewer's yeast-induced pyrexia", "format": "in vivo, Albino rats", "conditions": "for activity against yeast-induced hyperthermia: 10 and 20 mg/kg s.c., 30, 60, and 120 min", "experimental": "as §1\nAlbino rats of either sex weighing 180–200 g were used for anti-pyretic studies. The animals were divided into five groups with each group having six albino rats (n = 6). All the animals were given free access to food and water. Basal rectal temperature was measured using a digital clinical thermometer before injecting the yeast. Hyperthermia was induced in rats by sub-cutaneous (s.c.) injection of 20% aqueous suspension of brewer’s yeast (20 ml/ kg) in the back below the nape of the neck ([Loux et al., 1972]). Group 1 was treated with normal saline as a control, and group 2 was treated with indomethacin (10 mg/kg, s. c) as the standard drug, while the remaining groups 3–5 were treated with compound 1–5 (10 mg/ kg and 20 mg/ kg, s. c). After 24 h from the yeast injection, the rise in the rectal temperature was recorded at regular intervals of 30, 60, and 120 min after drug administration."}, "[2]": {"tested_on": "promastigotes of Leishmania tropica (clinical field isolate KWH23)", "experiment": "Anti-leishmanial assay on promastigotes", "format": "cell-based", "conditions": "for anti-leishmanial properties: at all four tested concentrations, 48 h", "experimental": "The initial culture was raised in the 5 ml M-199 medium supplemented with 10% heat-inactivated fetal bovine serum (HI-FBS), 100 μg/ ml penicillin, 100 μg/ ml streptomycin, 50 μg/ ml kanamycin, and 5 μg/ ml of hemin in a 15-ml culture flask. The culture flask was kept in an incubator at 26°C, and the medium was changed every third day. The cultures were given enough time (10–14 days) to fully develop and promastigotes to reach the metacyclic stage. The culture was then sub-passaged by pouring the contents of the flask containing the promastigotes into a centrifuge tube. The tubes were then spun in a Sigma centrifuge at 2000 rpm for 12 min. After spinning, the medium was carefully poured off leaving the pellet only. This pellet was re-suspended in the 2–4 ml growth medium, and new cultures were established. The primary culture was used for sensitivity assays, and additional cultures were cryopreserved in liquid nitrogen at −196°C for future use.\nThe culture of L. tropica clinical field isolate KWH23 was established from already cryopreserved collection in the Department of Zoology, University of Peshawar. The initial culture was raised in the 5 ml M-199 medium supplemented with 10% heat-inactivated fetal bovine serum (HI-FBS), 100 μg/ ml penicillin, 100 μg/ ml streptomycin, 50 μg/ ml kanamycin, and 5 μg/ ml of hemin in a 15-ml culture flask. Two experiments were run at a time under the same conditions in 96-well flat-bottom plates. The promastigotes were counted in culture suspension by using the improved Neubauer hemocytometer. From the viable promastigotes bulk culture (4 × 10^6/ ml), 1 × 10^5 promastigotes/well in the 200 µL fresh M-199 medium were seeded in 96-well plates. Four different concentrations for each compound were applied, and one row of 12 wells was kept as a control with the growth medium only. The 96-well plates were incubated at 26°C for 48 h. After 48 h, the number of promastigotes in each well was counted microscopically using the improved Neubauer hemocytometer."}}, "data": [{"smiles": "COc1cc2c3cc1Oc1c(O)ccc(c1O)CC1c4c(cc(OC)c(OC)c4Oc4ccc(cc4)CC3N(C)CC2)CCN1C", "note": "(centres unmarked) [Compound 1, chondrofolinol]", "values": [{"measurement": "percent inhibition of carrageenan-induced paw edema", "setting": "[1]; 10 mg/kg of chondrofolinol", "result": 32.12, "unit": "%"}, {"measurement": "percent inhibition of carrageenan-induced paw edema", "setting": "[1]; 20 mg/kg of chondrofolinol", "result": 53.34, "unit": "%"}, {"measurement": "paw volume in carrageenan-induced paw edema", "setting": "[1]; 10 and 20 mg/kg of body weight", "result": "significantly reduced"}, {"measurement": "rectal temperature in yeast-induced pyrexia", "setting": "yeast-induced pyrexia; 10 and 20 mg/kg of body weight", "result": "significantly reduced"}, {"measurement": "activity against yeast-induced hyperthermia", "setting": "yeast-induced pyrexia", "result": "significantly active"}, {"measurement": "anti-pyretic potential", "setting": "yeast-induced pyrexia; at both concentrations (10 and 20 mg/kg)", "result": "milder anti-pyretic potential"}, {"measurement": "inhibition of the promastigotes of Leishmania tropica", "setting": "[2]; 48 h incubation", "result": "~100", "unit": "%"}, {"measurement": "anti-leishmanial properties", "setting": "[2]", "result": "strong anti-leishmanial properties"}]}, {"smiles": "COc1ccc2cc3[n+](cc2c1OC)CCc1cc2c(cc1-3)OCO2", "note": "[Compound 2, berberine]", "values": [{"measurement": "activity against yeast-induced hyperthermia", "setting": "yeast-induced pyrexia", "result": "significantly active"}, {"measurement": "anti-leishmanial properties", "setting": "[2]", "result": "strong anti-leishmanial properties"}]}, {"smiles": "COc1cc2c(cc1OC)-c1cc3ccc(OC)c(OC)c3c[n+]1CC2", "note": "[Compound 4, palmatine]", "values": [{"measurement": "activity against yeast-induced hyperthermia", "setting": "yeast-induced pyrexia", "result": "significantly active"}, {"measurement": "anti-leishmanial properties", "setting": "[2]", "result": "strong anti-leishmanial properties"}]}, {"smiles": "COc1ccc2c(c1OC)C(C(Cl)(Cl)Cl)N1CCc3cc4c(cc3C1=C2)OCO4", "note": "(centres unmarked) [Compound 5, 8-trichloromethyldihydroberberine]", "values": [{"measurement": "activity against yeast-induced hyperthermia", "setting": "yeast-induced pyrexia", "result": "significantly active"}, {"measurement": "anti-leishmanial properties", "setting": "[2]", "result": "strong anti-leishmanial properties"}]}]}
